Test results from ChEMBL document CHEMBL3301451, “MMV Malaria Box gametocyte functional viability assay screening”.

Columns and labels:
Assay type in all cases: functional
Design in all cases: concentration or dose not given beside the values
[1] = system: Plasmodium falciparum; test: (§1) MMV: P. falciparum NF54 functionally mature Stage V gametocytes were incubated for 24 hr in the presence of the test compounds. Gamete formation was then triggered by addition of 2uM xantheurenic acid and temperature decrease to ~20C. Male gamete exflagellation was recorded and analysed by automated microscopy after 20 min. All compounds were tested in 4 independent experiments and data presented here is the mean.
[2] = system: Plasmodium falciparum; test: as §1, with “Female” for “Male”, “formation” for “exflagellation”, “24 hr later” for “and analysed”, “detection of surface labelling of female gametes with a Cy3-conjugated antibody reactive to Pfs25.” for “after 20 min.”; details: NF54, 24 h
[3] = system: Plasmodium berghei; test: MMV: P. berghei-infected blood was withdrawn from mice by cardiac pucture before being immediately added to ookinete culture medium containing test compounds. 26 hr later, GFP-positive ookinetes were identified and counted by automated microscopy. All compounds were tested in 4 independent experiments and data presented here is the mean.

SMILES | inhibition [1] [%] | inhibition [2] [%] | inhibition [3] [%]
CN1CCN(c2ccc(Nc3c4ccccc4nc4ccccc34)cc2)CC1 | 56.4 | -3.1 | 3.384
CCN1CCCC1CNc1[nH]cnc2c3cc(Cl)ccc3nc1-2 (stereo not given) | 18.2 | 3.48 | -0.006896
C[n+]1c2ccccc2nc2ccc(NCCO)cc21 | 33.8 | -21.5 | 4.233
OC(CNCC1CCCO1)Cn1c2ccc(Cl)cc2c2cc(Cl)ccc21 (stereo not given) | -34.5 | -43.4 | 3.62
c1ccc(/C2=N/c3ccccc3/N=C(/c3ccccc3)c3ccccc32)cc1 | 41.7 | 5.88 | 4.56
COc1cc(C(=O)Nc2nc3c(cc4c5c(cccc53)CC4)s2)cc(OC)c1OC | -1.82 | -22.3 | 5.808
Cc1cc(NC(=O)c2cccc(C(F)(F)F)c2)n(-c2nc(-c3ccc4c(c3)OCO4)cs2)n1 | 11.3 | 17.1 | -1.403
O=C(CCc1ccccc1)c1ccccc1OCC(O)CN1CCCCC1 (stereo not given) | 22.9 | -34.8 | -0.1506
CN(C)CCNc1cc(-c2ccccc2)nc2ccccc12 | 2.52 | -24.1 | -1.411
COc1cccc(O)c1CN1CCC2(CCCN(Cc3ccc(F)cc3)C2)C1 (stereo not given) | -5.07 | -15.6 | 0.1358
CCOC(=O)C1=C(C)N=c2sc(=Cc3ccccc3O)c(=O)n2C1c1ccc(OC)c2ccccc12 (stereo not given) | -4.7 | -23.7 | 3.682
CCOC(=O)C1=C(C)N=c2sc(=Cc3cc(Cl)ccc3O)c(=O)n2C1c1ccc(OC)cc1 (stereo not given) | -29.2 | -13 | 5.932
Cc1nc2ccccc2c(O)c1CC=C(Cl)Cl | 6.46 | -3.75 | 2.285
FC(F)(F)c1cccc(Nc2nc3ccccc3nc2Nc2cccc(C(F)(F)F)c2)c1 | 24.6 | -14.6 | -0.8978
COc1ccc2nc(C)cc(Nc3ccc(Cl)cc3)c2c1 | -17.3 | -15.3 | 4.092
c1ccc(-c2ccc(-c3nc4ccccc4[nH]3)cc2)cc1 | 15.6 | -7.69 | -1.667
CCC(C)NCC(O)(c1ccc(Cl)cc1)c1ccc(Cl)cc1 (stereo not given) | 25.7 | -7.82 | 2.874
Cn1c(=O)c2cc(C(=O)NCCCN3CCCCCC3)sc2c2ccccc21 | 20.7 | -16.3 | 5.415
COc1ccc(C(=O)NC(c2ccc(Cl)cc2Cl)c2cc(Cl)c3cccnc3c2O)cc1 (stereo not given) | -11.1 | -10.1 | 1.805
O=C(NC(c1ccccc1)c1ccc2cccnc2c1O)c1ccccc1 (stereo not given) | 5.16 | -22.7 | 6.162
Cl.c1ccc2c(NCCCCCCNc3c4c(nc5ccccc35)CCCC4)c3c(nc2c1)CCCC3 | 18.8 | -9.36 | -0.2313
O=C(CCc1ccco1)NC1CCN(CC2(c3ccc(Cl)cc3)CCC2)CC1 | 39.4 | -33.1 | 1.599

SMILES | inhibition [1] [%] | inhibition [2] [%] | inhibition [3] [%]
Cc1ccnc(NC(c2cccc(OCc3ccccc3)c2)c2ccc3cccnc3c2O)c1 (stereo not given) | 11 | -12.7 | -0.9408
CC(=O)Nc1nnc(SCc2c(C)cc(C(C)(C)C)cc2C)s1 | 17.4 | 5.39 | 4.957
COc1ccc(C(=O)Nc2nonc2-c2ccc(OC)c(OC)c2)cc1Cl | 36.3 | -18.2 | 1.319
COCCN(C(=O)Cc1cccs1)C(C(=O)NCc1ccc(OC)cc1)c1ccc(C(C)C)cc1 (stereo not given) | 9.73 | -5.87 | 0.1558
CN1CCN(c2c3c(c(C#N)c4nc5ccccc5n24)CCC3)CC1 | 16.1 | -10.7 | 0.2959
CCN(CC)CCNc1ccnc2cc3ccccc3cc12.O=P(O)(O)O | 9.43 | -24 | 2.138
Cc1cc(Nc2cccc(F)c2)nc(NCc2ccccc2)n1 | 20.4 | -45.8 | 4.533
COc1ccc2c(c1)OC(O)(C(F)(F)C(F)(F)F)CC2=O (stereo not given) | -139 | -4.89 | -0.6954
FC(F)(F)c1cccc(CNC2CCN(CCc3ccccc3)CC2)c1 | -0.872 | -31.1 | 1.472
COc1ccc(C2NCCc3c2[nH]c2ccccc32)cc1CN1CCN(c2ccc(F)cc2)CC1.Cl (stereo not given) | 5.86 | -18.1 | -1.071
O=C1c2ccc3c4c(ccc(c24)C(=O)N1CCCCO)C(=O)N(CCCCO)C3=O | -2.41 | -45.3 | -0.9886
OC(Cn1nnc2ccccc21)Cn1c2ccc(Br)cc2c2cc(Br)ccc21 (stereo not given) | 33.4 | -23.3 | -0.4033
CC(C)CCNCC(O)Cn1c2ccccc2c2ccccc21.Cl (stereo not given) | -10.1 | -12.9 | 4.97
CCOC(=O)c1cnc2c(C)cccc2c1Nc1ccc(C(C)=O)cc1 | 13 | -9.63 | 1.277
COc1cccc(-c2nn(C)c3sc(C(=O)NCCN4CCN(c5ccccc5F)CC4)cc23)c1 | 14.1 | -2.79 | 2.067
CNCCCNc1ccnc2cc(Cl)ccc12 | -17.2 | -3.53 | 0.238
COc1ccccc1CNC(=O)CCn1c(=O)[nH]c2ccsc2c1=O | 22.3 | -26.3 | -0.4809
O=C(Nc1ccc(N2CCCCC2)c(Cl)c1)c1ccc(Br)o1 | 41.2 | -35.3 | 4.656
COc1ccc(C(O)(CCC(C)C)C(CN2CCOCC2)c2ccc(Cl)cc2)cc1.Cl (stereo not given) | -0.282 | 6.32 | 5.473
CCCCCCn1c(=N)n(CC(O)COc2cccc(C)c2)c2ccccc21.Cl (stereo not given) | -52.7 | -17.6 | 1.158
CC(C)OCc1cc(CN2CCN(c3cccc(Cl)c3)CC2)c(O)c2ncccc12 | 10.1 | -27.4 | 5.6
O=C(Nc1nc(-c2ccccn2)cs1)c1ccccc1Br | -29.6 | -22.2 | 2.456

SMILES | inhibition [1] [%] | inhibition [2] [%] | inhibition [3] [%]
Oc1ccc(C(=C(Cl)Cl)c2ccc(O)cc2)cc1 | 5.51 | -25.3 | 3.378
CCOc1ccc2c(c1)CN(Cc1ccc(Cl)cc1)CO2 | 18.9 | -18.1 | 5.14
CCOc1ccccc1CNC(=O)C1c2ccccc2C(=O)N(CC(C)C)C1c1cccs1 (stereo not given) | 15.7 | -3.09 | 3.43
CC(C)(C)c1ccc2c(c1)CN(Cc1ccc(Cl)cc1)CO2 | -12.2 | 6.43 | 3.358
Cc1ccc2c(C)nc(Nc3nc(C)cc(-c4ccccc4)n3)nc2c1 | -11.5 | -39.7 | -0.3138
Cc1cc(=O)oc2c1ccc1oc(C(=O)c3ccccc3)c(C)c12 | -11.5 | -19.6 | 6.058
COc1ccc2c(c1OC)C(=O)N1c3ccccc3N=C(c3ccc(C)cc3)CC21 (stereo not given) | 8.91 | -8.58 | -1.051
Cl.OC(CNCc1ccccc1)Cn1c2ccccc2c2ccccc21 (stereo not given) | -10.2 | 11.4 | 3.967
COc1ccccc1N1CCN(C(CNS(=O)(=O)c2ccc(Cl)cc2)c2cccnc2)CC1 (stereo not given) | 3.66 | -39.2 | -1.627
Cc1ccc(F)cc1NC(=O)c1cc(Cl)ccc1Nc1ccccc1 | 43.2 | -12.6 | 6.256
Oc1c2c(nc3cc(-c4ccccc4)nn13)CCCC2 | 1.37 | -27.5 | 4.402
COc1ccc(C)c2sc(N(Cc3cccnc3)C(=O)c3ccc(C#N)cc3)nc12 | -18.7 | -37.8 | 2.145
CCCN(CCC)CCCNC(=O)c1cc2c(-c3ccc(OC)c(OC)c3)nn(C)c2s1 | -20.2 | -7.86 | 5.504
CN1c2ccccc2N(C)C1c1ccc2c(c1)OCO2 | 8.56 | -33.5 | 3.083
CN(C)c1ccc(N=Cc2ccc(N3CCOCC3)cc2)cc1 | 34.2 | -21.3 | 4.978
CCCCOc1ccc(C(=O)Nc2cc(C)on2)cc1 | 47.5 | -26.5 | 1.333
CC1CCCCN1CCCNC(=O)c1ccc2c(c1)sc1nc(-c3ccc(F)cc3)cn12 (stereo not given) | -15.9 | -12.6 | 0.9156
CCOC(=O)c1cnc2c(C)cc(C)cc2c1Nc1ccc(OC)c(OC)c1 | 25.9 | -14.2 | 1.422
CCCn1c(=N)c(C(=O)NC2CCCCC2)cc2c(=O)n3cccc(C)c3nc21 | 22.1 | -11.9 | -1.292
CC(C)(C)c1ccc(C2CC3=Nc4ccccc4N(C(=O)c4ccccc4Cl)C(c4ccc(F)cc4)C3=C(O)C2)cc1 (stereo not given) | -39.9 | -44.4 | 4.566
CCOC(=O)c1c[nH]c2c(CC)cccc2c1=O | 21.5 | 8.74 | -1.306
